Data taken from US11168073B2, “3,3-difluoroallylamines or salts thereof and pharmaceutical compositions comprising the same” (YUHAN CORPORATION, priority 2018, dated 2021).
Counter-ions that a name gives are not always drawn.

Assays:
Format in all cases: biochemical
[1] = target: T1, recombinant human VAP-1 (Homo sapiens, UniProt Q16853); experiment: Activity evaluation on recombinant human VAP-1 (Amplex Red/HRP-coupled hydrogen peroxide assay, benzylamine substrate); details: recombinant human VAP-1, benzylamine substrate; read-out: Inhibitory Activity (IC50, nM) human VAP-1
T1 construct: purchased R&D systems
T1 sequence (Q16853 1-763): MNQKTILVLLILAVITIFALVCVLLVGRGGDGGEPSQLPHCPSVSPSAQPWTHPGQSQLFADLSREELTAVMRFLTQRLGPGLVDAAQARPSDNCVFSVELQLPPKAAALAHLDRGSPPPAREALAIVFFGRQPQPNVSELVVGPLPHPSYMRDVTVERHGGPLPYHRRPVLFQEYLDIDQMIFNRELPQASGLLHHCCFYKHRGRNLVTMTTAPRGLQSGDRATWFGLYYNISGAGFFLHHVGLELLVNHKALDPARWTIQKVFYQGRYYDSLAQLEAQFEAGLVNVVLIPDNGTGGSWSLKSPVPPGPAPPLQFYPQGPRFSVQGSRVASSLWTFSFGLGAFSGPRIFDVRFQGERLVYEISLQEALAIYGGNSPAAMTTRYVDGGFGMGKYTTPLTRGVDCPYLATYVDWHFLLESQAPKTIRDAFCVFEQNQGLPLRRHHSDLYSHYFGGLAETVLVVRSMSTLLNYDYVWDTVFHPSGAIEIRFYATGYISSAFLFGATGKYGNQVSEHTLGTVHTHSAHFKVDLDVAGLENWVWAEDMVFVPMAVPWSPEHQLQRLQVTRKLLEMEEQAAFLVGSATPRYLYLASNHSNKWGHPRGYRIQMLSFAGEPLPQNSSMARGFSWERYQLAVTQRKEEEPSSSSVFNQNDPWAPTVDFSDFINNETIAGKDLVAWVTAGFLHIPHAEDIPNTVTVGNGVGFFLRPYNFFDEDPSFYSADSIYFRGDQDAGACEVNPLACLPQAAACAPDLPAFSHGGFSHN
In short: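 Recombinant human VAP-1 in 50 mM sodium phosphate pH 7.4 preincubated 30 min at 37 °C with compound (8-point 1:3 series, <1% DMSO), then 1 mM benzylamine, 200 uM Amplex Red, 1 U/mL HRP added. H2O2-derived resorufin fluorescence (ex 544/em 590) followed 1–2 h; IC50 from four-parameter fit of rate inhibition.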

[2] = target: T2, recombinant human MAO-A (monoamine oxidase-A) (Homo sapiens, UniProt P21397); experiment: Activity evaluation on recombinant human MAO-A (Amplex Red/HRP-coupled assay, 0.5 mM tyramine substrate); details: 0.5 mM tyramine substrate, read-out: Inhibitory Activity (IC50, nM) MAO-A
T2 construct: purchased Sigma-Aldrich
T2 sequence (P21397 1-527): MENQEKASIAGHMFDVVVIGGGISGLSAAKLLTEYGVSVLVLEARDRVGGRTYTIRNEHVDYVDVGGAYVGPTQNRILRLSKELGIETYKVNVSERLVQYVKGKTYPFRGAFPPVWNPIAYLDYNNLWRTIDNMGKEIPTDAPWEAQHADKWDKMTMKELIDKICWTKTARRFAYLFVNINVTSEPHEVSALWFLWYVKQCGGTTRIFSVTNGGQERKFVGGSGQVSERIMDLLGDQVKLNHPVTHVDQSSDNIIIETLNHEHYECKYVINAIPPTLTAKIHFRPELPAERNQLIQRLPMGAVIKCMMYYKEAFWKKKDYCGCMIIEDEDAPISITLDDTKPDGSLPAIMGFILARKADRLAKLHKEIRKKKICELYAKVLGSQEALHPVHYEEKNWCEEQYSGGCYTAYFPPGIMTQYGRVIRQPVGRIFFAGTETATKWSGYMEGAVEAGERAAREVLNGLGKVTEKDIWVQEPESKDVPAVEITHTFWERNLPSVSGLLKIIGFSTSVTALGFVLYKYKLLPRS
In short: (§1)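 Enzyme was preincubated with compounds (8-point 1:3 series, final DMSO <1%) 30 min at 37 °C in 50 mM sodium phosphate pH 7.4, then given 200 uM Amplex Red and 1 U/mL HRP with substrate. H2O2-derived resorufin fluorescence (ex 544/em 590 nm) was followed over 1–2 h; IC50 came from 4-parameter logistic fits of signal-rate inhibition versus DMSO control.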

[3] = target: T3, recombinant human MAO-B (monoamine oxidase-B) (Homo sapiens, UniProt P27338); experiment: Activity evaluation on recombinant human MAO-B (Amplex Red/HRP-coupled assay, 1 mM benzylamine substrate); details: 1 mM benzylamine substrate, read-out: Inhibitory Activity (IC50, nM) MAO-B
T3 construct: purchased Sigma-Aldrich
T3 sequence (P27338 1-520): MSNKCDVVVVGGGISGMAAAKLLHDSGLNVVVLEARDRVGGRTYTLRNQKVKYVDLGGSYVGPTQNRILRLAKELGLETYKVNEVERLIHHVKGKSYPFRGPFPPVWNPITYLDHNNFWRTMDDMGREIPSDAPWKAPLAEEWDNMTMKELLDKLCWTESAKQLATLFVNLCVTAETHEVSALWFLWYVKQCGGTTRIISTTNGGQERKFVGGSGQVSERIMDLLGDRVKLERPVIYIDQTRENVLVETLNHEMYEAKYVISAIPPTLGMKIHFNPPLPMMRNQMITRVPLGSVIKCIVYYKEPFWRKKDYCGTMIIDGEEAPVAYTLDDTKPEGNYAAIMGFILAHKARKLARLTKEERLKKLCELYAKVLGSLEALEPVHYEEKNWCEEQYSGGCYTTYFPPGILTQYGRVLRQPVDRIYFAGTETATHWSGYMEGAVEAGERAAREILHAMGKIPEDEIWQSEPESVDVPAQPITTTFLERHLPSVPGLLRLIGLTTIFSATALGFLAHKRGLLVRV
In short: as §1

[4] = target: T4, recombinant human DAO (diamine oxidase) (Homo sapiens, UniProt P19801); experiment: Activity evaluation on recombinant human DAO (Amplex Red/HRP-coupled assay, 1 mM putrescine substrate); details: 1 mM putrescine substrate, read-out: Inhibitory Activity (IC50, nM) DAO
T4 construct: purchased R&D systems
T4 sequence (P19801 20-751): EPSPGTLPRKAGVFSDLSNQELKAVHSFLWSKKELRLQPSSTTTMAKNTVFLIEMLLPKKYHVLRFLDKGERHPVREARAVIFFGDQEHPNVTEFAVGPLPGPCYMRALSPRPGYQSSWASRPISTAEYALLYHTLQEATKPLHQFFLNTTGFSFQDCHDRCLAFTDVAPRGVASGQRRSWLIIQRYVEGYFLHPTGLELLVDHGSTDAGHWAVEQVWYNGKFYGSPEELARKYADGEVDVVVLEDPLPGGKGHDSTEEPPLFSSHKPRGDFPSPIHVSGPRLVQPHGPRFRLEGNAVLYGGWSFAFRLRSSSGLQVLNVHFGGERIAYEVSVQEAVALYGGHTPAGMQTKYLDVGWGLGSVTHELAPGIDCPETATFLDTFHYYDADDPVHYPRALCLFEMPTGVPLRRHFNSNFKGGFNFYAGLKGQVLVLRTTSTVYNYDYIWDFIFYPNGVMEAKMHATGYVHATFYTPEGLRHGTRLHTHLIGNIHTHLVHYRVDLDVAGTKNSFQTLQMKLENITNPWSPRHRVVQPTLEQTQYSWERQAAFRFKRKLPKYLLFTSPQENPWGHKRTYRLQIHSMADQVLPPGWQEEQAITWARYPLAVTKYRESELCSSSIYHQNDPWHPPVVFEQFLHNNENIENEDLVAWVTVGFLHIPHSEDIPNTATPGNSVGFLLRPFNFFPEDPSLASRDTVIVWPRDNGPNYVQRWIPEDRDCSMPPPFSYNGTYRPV
In short: as §1

| IC50 [1] [nM] | IC50 [2] [nM] | IC50 [3] [nM] | IC50 [4] [nM] | SMILES |
| --- | --- | --- | --- | --- |
| 3.1 | > 100000 | 125 | 54100 | NCC(Cn1ncn(Cc2cccc(-c3ccc4c(c3)OCO4)c2)c1=O)=C(F)F [Example 274, 2-[2-(aminomethyl)-3,3-difluoro-allyl]-4-[[3-(1,3-benzodioxol-5-yl)phenyl]methyl]-1,2,4-triazol-3-one Trifluoroacetate] |
| 0.9 | > 100000 | 25400 | 5160 | Cc1cc(-c2cccc(Cn3cnn(CC(CN)=C(F)F)c3=O)c2)cc2c1NC(=O)CC2 [Example 275, 6-[3-[[1-[2-(aminomethyl)-3,3-difluoro-allyl]-5-oxo-1,2,4-triazol-4-yl]methyl]phenyl]-8-methyl-3,4-dihydro-1H-quinolin-2-one Trifluoroacetate] |
| 0.5 | > 100000 | 2250 | 3080 | CN1C(=O)CCc2cc(-c3cccc(Cn4cnn(CC(CN)=C(F)F)c4=O)c3)ccc21 [Example 276, 6-[3-[[1-[2-(aminomethyl)-3,3-difluoro-allyl]-5-oxo-1,2,4-triazol-4-yl]methyl]phenyl]-1-methyl-3,4-dihydroquinolin-2-one Trifluoroacetate] |
| 2.5 | > 100000 | 68600 | 1810 | CCn1cc(-c2cccc(Cn3cnn(CC(CN)=C(F)F)c3=O)c2)ccc1=O [Example 277, 5-[3-[[1-[2-(aminomethyl)-3,3-difluoro-allyl]-5-oxo-1,2,4-triazol-4-yl]methyl]phenyl]-1-ethyl-pyridin-2-one Trifluoroacetate] |
| 17 | > 100000 | > 100000 | > 100000 | CCn1cc(-c2ccccc2Cn2cnn(CC(CN)=C(F)F)c2=O)cn1 [Example 278, 2-[2-(aminomethyl)-3,3-difluoro-allyl]-4-[[2-(1-ethylpyrazol-4-yl)phenyl]methyl]-1,2,4-triazol-3-one trifluoroacetate] |
| > 100 | > 100000 | > 100000 | > 100000 | CS(=O)(=O)c1ccc(-c2ccccc2Cn2cnn(CC(CN)=C(F)F)c2=O)cc1 [Example 279, 2-[2-(aminomethyl)-3,3-difluoro-allyl]-4-[[2-(4-methylsulfonylphenyl)phenyl]methyl]-1,2,4-triazol-3-one Trifluoroacetate] |
| 2380 | > 100000 | > 100000 | > 100000 | NCC(Cn1ncn(Cc2ccccc2-c2ccc(N3CCNCC3)cc2)c1=O)=C(F)F [Example 280, 2-[2-(aminomethyl)-3,3-difluoro-allyl]-4-[[2-(4-piperazin-1-ylphenyl)phenyl]methyl]-1,2,4-triazol-3-one Ditrifluoroacetate] |
| 307 | > 100000 | > 100000 | 4860 | CN(C)c1ccc(-c2ccccc2Cn2cnn(CC(CN)=C(F)F)c2=O)cn1 [Example 281, 2-[2-(aminomethyl)-3,3-difluoro-allyl]-4-[[2-[6-(dimethylamino)-3-pyridyl]phenyl]methyl]-1,2,4-triazol-3-one Trifluoroacetate] |
| 28 | > 100000 | > 100000 | > 100000 | NCC(Cn1ncn(Cc2ccccc2-c2ccc3c(c2)OCO3)c1=O)=C(F)F [Example 282, 2-[2-(aminomethyl)-3,3-difluoro-allyl]-4-[[2-(1,3-benzodioxol-5-yl)phenyl]methyl]-1,2,4-triazol-3-one Trifluoroacetate] |
| 154 | > 100000 | > 100000 | > 100000 | Cc1cc(-c2ccccc2Cn2cnn(CC(CN)=C(F)F)c2=O)cc2c1NC(=O)CC2 [Example 283, 6-[2-[[1-[2-(aminomethyl)-3,3-difluoro-allyl]-5-oxo-1,2,4-triazol-4-yl]methyl]phenyl]-8-methyl-3,4-dihydro-1H-quinolin-2-one Trifluoroacetate] |
| 148 | > 100000 | > 100000 | 66400 | CN1C(=O)CCc2cc(-c3ccccc3Cn3cnn(CC(CN)=C(F)F)c3=O)ccc21 [Example 284, 6-[2-[[1-[2-(aminomethyl)-3,3-difluoro-allyl]-5-oxo-1,2,4-triazol-4-yl]methyl]phenyl]-1-methyl-3,4-dihydroquinolin-2-one trifluoroacetate] |
| > 100 | > 100000 | > 100000 | > 100000 | CCn1cc(-c2ccccc2Cn2cnn(CC(CN)=C(F)F)c2=O)ccc1=O [Example 285, 5-[2-[[1-[2-(aminomethyl)-3,3-difluoro-allyl]-5-oxo-1,2,4-triazol-4-yl]methyl]phenyl]-1-ethyl-pyridin-2-one Trifluoroacetate] |
| 1.4 | 2620 | 3230 | 2480 | CCn1cc(-c2ccc(-c3ccc(Cn4cnn(CC(CN)=C(F)F)c4=O)s3)cc2)cn1 [Example 286, 2-[2-(aminomethyl)-3,3-difluoro-allyl]-4-[[5-[4-(1-ethylpyrazol-4-yl)phenyl]-2-thienyl]methyl]-1,2,4-triazol-3-one Trifluoroacetate] |
